Converted amounts (≈) assume the structure as drawn. Read-outs that look alike come from different tables or passages of the source.
Experiments:
BAX = BAX gene expression in HepG-2 cells; assay type: cell-based, human
Description: (§1) All synthesized compounds were tested at their cytotoxic concentrations in HepG-2 cells for analysis of gene expression levels of apoptotic markers caspase-3, caspase-9, TNF-α, and IL-6 proteins, and only two active compounds were tested for BAX and Bcl-2 proteins.
(§2) through Flow cytometric analysis.
(§3) Pellets were collected again and incubated with
(§4) Total RNA from vehicle-treated
(§5) (Thermo Scientific, USA).
(§6) All experiments were performed in […]

VEGFR-2 = VEGFR-2 (Homo sapiens, UniProt P35968); assay: In vitro VEGFR-2 inhibitory assay (ELISA kit); settings: VEGFR-2 kinase
Sequence of VEGFR-2 (P35968 20-1356): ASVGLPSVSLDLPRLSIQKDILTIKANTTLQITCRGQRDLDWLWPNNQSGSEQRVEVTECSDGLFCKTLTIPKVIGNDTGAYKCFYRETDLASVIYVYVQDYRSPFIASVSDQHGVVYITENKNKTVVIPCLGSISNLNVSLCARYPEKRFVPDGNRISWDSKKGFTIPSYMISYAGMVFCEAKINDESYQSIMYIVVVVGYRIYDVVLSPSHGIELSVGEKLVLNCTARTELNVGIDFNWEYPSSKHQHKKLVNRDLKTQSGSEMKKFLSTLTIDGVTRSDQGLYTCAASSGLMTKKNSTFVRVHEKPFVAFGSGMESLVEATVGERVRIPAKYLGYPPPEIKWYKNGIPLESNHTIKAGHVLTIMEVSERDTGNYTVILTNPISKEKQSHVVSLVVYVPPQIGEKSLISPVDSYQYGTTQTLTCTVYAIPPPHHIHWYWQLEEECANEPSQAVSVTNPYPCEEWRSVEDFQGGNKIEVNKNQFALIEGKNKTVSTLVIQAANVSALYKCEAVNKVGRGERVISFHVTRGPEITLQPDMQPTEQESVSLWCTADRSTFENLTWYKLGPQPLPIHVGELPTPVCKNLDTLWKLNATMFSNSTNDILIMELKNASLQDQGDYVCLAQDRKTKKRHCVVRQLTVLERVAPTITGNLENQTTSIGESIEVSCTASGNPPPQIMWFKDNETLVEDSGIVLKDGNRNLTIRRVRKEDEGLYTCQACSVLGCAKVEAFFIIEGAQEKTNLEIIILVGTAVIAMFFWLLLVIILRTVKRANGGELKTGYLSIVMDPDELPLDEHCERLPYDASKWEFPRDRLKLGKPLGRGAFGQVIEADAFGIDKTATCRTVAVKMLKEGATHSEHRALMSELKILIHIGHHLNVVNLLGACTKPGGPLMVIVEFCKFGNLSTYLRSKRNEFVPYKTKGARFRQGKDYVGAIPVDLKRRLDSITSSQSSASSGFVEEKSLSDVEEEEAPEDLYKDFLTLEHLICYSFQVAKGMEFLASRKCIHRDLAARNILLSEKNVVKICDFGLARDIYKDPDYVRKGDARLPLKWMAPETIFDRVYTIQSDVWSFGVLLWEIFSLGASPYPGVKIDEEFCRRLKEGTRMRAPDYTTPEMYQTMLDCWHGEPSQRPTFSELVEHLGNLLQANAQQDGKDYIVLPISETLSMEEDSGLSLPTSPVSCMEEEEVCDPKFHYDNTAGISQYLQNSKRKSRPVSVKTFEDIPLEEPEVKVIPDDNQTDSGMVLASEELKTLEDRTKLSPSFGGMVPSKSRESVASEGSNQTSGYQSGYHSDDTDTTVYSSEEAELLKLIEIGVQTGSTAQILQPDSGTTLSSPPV

MCF-7 [1] = assay: MTT anti-proliferative assay, MCF-7; assay type: cell-based, human; settings: Homo sapiens, MCF7
caspase-3 = assay: Caspase-3 expression level in HepG-2 cells; assay type: cell-based, human; settings: for Caspase-3 ± SE: HepG-2, at IC50 concentrations, control 0.460
Description: as §1, §2, §3, §4, §5, §6

Bcl-2 = Bcl-2 gene expression in HepG-2 cells; assay type: cell-based, human
Description: as §1, §2, §3, §4, §5, §6

HepG-2 = assay: MTT anti-proliferative assay, HepG-2; assay type: cell-based, human; settings: Homo sapiens, HepG2
IL-6R = IL-6R level in HepG-2 cells; assay type: cell-based, human; settings: control 44.10
Description: as §1, §2, §3, §4, §5, §6

EGFR = EGFR (Homo sapiens, UniProt P00533); assay: EGFR kinase inhibition assay (ELISA kit)
Sequence of EGFR (P00533 25-1210): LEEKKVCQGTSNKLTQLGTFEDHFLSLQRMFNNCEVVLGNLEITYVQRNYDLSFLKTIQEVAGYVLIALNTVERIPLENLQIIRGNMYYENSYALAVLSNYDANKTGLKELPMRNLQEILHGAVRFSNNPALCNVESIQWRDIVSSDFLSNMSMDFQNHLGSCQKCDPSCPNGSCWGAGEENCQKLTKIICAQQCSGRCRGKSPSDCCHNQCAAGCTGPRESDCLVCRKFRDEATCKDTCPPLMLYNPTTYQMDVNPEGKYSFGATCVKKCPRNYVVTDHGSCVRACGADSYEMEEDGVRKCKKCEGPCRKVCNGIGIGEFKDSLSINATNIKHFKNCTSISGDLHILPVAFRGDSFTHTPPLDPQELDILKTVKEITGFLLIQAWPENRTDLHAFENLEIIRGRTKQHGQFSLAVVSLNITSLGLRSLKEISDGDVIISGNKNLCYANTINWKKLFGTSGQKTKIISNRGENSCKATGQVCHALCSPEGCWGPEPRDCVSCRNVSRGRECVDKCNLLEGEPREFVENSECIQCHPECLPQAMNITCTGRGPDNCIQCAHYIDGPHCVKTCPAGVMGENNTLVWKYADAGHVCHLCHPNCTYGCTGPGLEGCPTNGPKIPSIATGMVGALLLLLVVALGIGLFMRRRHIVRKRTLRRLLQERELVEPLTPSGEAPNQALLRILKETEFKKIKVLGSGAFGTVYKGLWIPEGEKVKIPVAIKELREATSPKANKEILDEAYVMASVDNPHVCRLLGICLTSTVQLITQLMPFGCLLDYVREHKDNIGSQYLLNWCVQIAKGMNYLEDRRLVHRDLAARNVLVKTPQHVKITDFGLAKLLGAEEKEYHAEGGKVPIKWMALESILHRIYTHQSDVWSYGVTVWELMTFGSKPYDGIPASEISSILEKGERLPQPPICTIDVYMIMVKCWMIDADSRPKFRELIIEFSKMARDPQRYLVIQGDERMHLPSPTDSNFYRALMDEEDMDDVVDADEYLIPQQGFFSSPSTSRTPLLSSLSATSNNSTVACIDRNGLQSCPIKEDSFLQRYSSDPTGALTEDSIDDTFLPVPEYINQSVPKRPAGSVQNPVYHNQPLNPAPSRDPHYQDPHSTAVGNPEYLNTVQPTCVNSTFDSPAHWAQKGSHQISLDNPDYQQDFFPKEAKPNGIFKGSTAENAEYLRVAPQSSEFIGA

TNF-alpha = TNF-alpha level in HepG-2 cells; assay type: cell-based, human; settings: control 43.48
Description: as §1, §2, §3, §4, §5, §6

K-562 = assay: MTT anti-proliferative assay, K-562; assay type: cell-based, human; settings: Homo sapiens, K562
BAX/Bcl-2 = BAX/Bcl-2 ratio in HepG-2 cells; assay type: cell-based, human
Description: as §1, §2, §3, §4, §5, §6

caspase-9 = assay: Caspase-9 expression level in HepG-2 cells; assay type: cell-based, human; settings: for Caspase-9 ± SE: HepG-2, at IC50 concentrations, control 11.01
Description: as §1, §2, §3, §4, §5, §6

VEGFR-2 kinase = settings: cited from earlier work
MCF-7 [2] = settings: cited from earlier work
PC3 = settings: cited from earlier work
HepG2 = settings: cited from earlier work
WI-38 = settings: read-out: IC50 normal WI-38 cells; cited from earlier work

## O=C(Cn1cnc2cc([N+](=O)[O-])ccc2c1=O)Nc1ccccc1 [9a, 2-(7-Nitro-4-oxoquinazolin-3(4H)-yl)-N-phenylacetamide]
BAX; HepG-2, vs control
  fold increase in BAX expression level: 6 fold
BAX; HepG-2, control 0.44
  BAX expression level: 2.65 fold change
BAX; HepG-2, control 0.4448
  Gene expression (fold change) BAX: 2.6533 ± 0.40 fold change
VEGFR-2; HepG2
  Activity %: 14.760%
  Inhibition %: 85.240%
VEGFR-2; K-562
  Activity %: 35.983%
  Inhibition %: 64.017%
VEGFR-2; MCF7
  Activity %: 19.964%
  Inhibition %: 80.036%
MCF-7 [1]; MCF-7, 0.195 umol
  viability at 0.195 µmol: 56.6%
MCF-7 [1]; MCF-7, 0.195 umol, read-out: Toxicity %
  cytotoxicity at 0.195 µmol: 43.4%
MCF-7 [1]; MCF-7, 0.391 umol
  viability at 0.391 µmol: 41.8%
MCF-7 [1]; MCF-7, 0.391 umol, read-out: Toxicity %
  cytotoxicity at 0.391 µmol: 58.2%
MCF-7 [1]; MCF-7, 0.781 umol
  viability at 0.781 µmol: 27.6%
MCF-7 [1]; MCF-7, 0.781 umol, read-out: Toxicity %
  cytotoxicity at 0.781 µmol: 72.4%
MCF-7 [1]; MCF-7, 1.563 umol
  viability at 1.563 µmol: 13.5%
MCF-7 [1]; MCF-7, 1.563 umol, read-out: Toxicity %
  cytotoxicity at 1.563 µmol: 86.5%
MCF-7 [1]; MCF-7, 3.125 umol
  viability at 3.125 µmol: 9.94%
MCF-7 [1]; MCF-7, 3.125 umol, read-out: Toxicity %
  cytotoxicity at 3.125 µmol: 90.1%
MCF-7 [1]; MCF-7, 6.25 umol
  viability at 6.25 µmol: 8.66%
MCF-7 [1]; MCF-7, 6.25 umol, read-out: Toxicity %
  cytotoxicity at 6.25 µmol: 91.3%
MCF-7 [1]; MCF-7, 12.5 umol
  viability at 12.5 µmol: 6.99%
MCF-7 [1]; MCF-7, 12.5 umol, read-out: Toxicity %
  cytotoxicity at 12.5 µmol: 93%
MCF-7 [1]; MCF-7, 25 umol
  viability at 25 µmol: 6.42%
MCF-7 [1]; MCF-7, 25 umol, read-out: Toxicity %
  cytotoxicity at 25 µmol: 93.6%
MCF-7 [1]; MTT, MCF-7, read-out: Cytotoxicity against cancer cells IC50 MCF-7
  IC50: 282.4 ± 1.4 nM
caspase-3
  Caspase-3 ± SE: 0.98 ± 0.04 ng/mL
caspase-3; listed as N1
  Caspase-3 ± SE: 0.98 ng/mL
caspase-3; HepG-2, vs control cells
  caspase-3 expression level, fold increase: 2.1 fold
Bcl-2; HepG-2, vs control
  fold reduction in Bcl-2 expression level: 2.8 fold
Bcl-2; HepG-2, control 3.49
  Bcl-2 expression level: 1.23 fold change
Bcl-2; HepG-2, control 3.4983
  Gene expression (fold change) Bcl-2: 1.2368 ± 0.30 fold change
HepG-2; HepG-2, 0.195 ug/ml
  viability at 0.195 µg/mL: 45.9%
HepG-2; HepG-2, 0.195 ug/ml, read-out: Toxicity %
  cytotoxicity at 0.195 µg/mL: 54.1%
HepG-2; HepG-2, 0.391 ug/ml
  viability at 0.391 µg/mL: 29.7%
HepG-2; HepG-2, 0.391 ug/ml, read-out: Toxicity %
  cytotoxicity at 0.391 µg/mL: 70.3%
HepG-2; HepG-2, 0.781 ug/ml
  viability at 0.781 µg/mL: 21%
HepG-2; HepG-2, 0.781 ug/ml, read-out: Toxicity %
  cytotoxicity at 0.781 µg/mL: 79%
HepG-2; HepG-2, 1.563 ug/ml
  viability at 1.563 µg/mL: 12.7%
HepG-2; HepG-2, 1.563 ug/ml, read-out: Toxicity %
  cytotoxicity at 1.563 µg/mL: 87.3%
HepG-2; HepG-2, 3.125 ug/ml
  viability at 3.125 µg/mL: 9.56%
HepG-2; HepG-2, 3.125 ug/ml, read-out: Toxicity %
  cytotoxicity at 3.125 µg/mL: 90.4%
HepG-2; HepG-2, 6.25 ug/ml
  viability at 6.25 µg/mL: 6.96%
HepG-2; HepG-2, 6.25 ug/ml, read-out: Toxicity %
  cytotoxicity at 6.25 µg/mL: 93%
HepG-2; HepG-2, 12.5 ug/ml
  viability at 12.5 µg/mL: 6.04%
HepG-2; HepG-2, 12.5 ug/ml, read-out: Toxicity %
  cytotoxicity at 12.5 µg/mL: 94%
HepG-2; HepG-2, 25 ug/ml
  viability at 25 µg/mL: 5.71%
HepG-2; HepG-2, 25 ug/ml, read-out: Toxicity %
  cytotoxicity at 25 µg/mL: 94.3%
HepG-2; MTT, HepG-2, read-out: Cytotoxicity against cancer cells IC50 HepG-2
  IC50: 187.1 ± 1.7 nM
IL-6R; HepG-2, at IC50 concentrations
  IL-6R ± SE: 26.0 ± 0.97 ng/L
IL-6R; raw data, HepG2
  IL-6 ±SE: 14.73 ng/L
EGFR; HepG2
  Activity %: 16.297%
  Inhibition %: 83.703%
EGFR; K-562
  Activity %: 21.954%
  Inhibition %: 78.046%
EGFR; MCF7
  Activity %: 19.563%
  Inhibition %: 80.437%
TNF-alpha; HepG-2, at IC50 concentrations
  TNF-alpha ±SE: 23.6 ± 1.35 ng/L
TNF-alpha; raw data, HepG2
  TNF-alpha ±SE: 9.13 ng/L
K-562; K-562, 0.195 umol
  viability at 0.195 µmol: 66.6%
K-562; K-562, 0.195 umol, read-out: Toxicity %
  cytotoxicity at 0.195 µmol: 33.4%
K-562; K-562, 0.391 umol
  viability at 0.391 µmol: 49.6%
K-562; K-562, 0.391 umol, read-out: Toxicity %
  cytotoxicity at 0.391 µmol: 50.4%
K-562; K-562, 0.781 umol
  viability at 0.781 µmol: 30.8%
K-562; K-562, 0.781 umol, read-out: Toxicity %
  cytotoxicity at 0.781 µmol: 69.2%
K-562; K-562, 1.563 umol
  viability at 1.563 µmol: 16.5%
K-562; K-562, 1.563 umol, read-out: Toxicity %
  cytotoxicity at 1.563 µmol: 83.5%
K-562; K-562, 3.125 umol
  viability at 3.125 µmol: 8.91%
K-562; K-562, 3.125 umol, read-out: Toxicity %
  cytotoxicity at 3.125 µmol: 91.1%
K-562; K-562, 6.25 umol
  viability at 6.25 µmol: 8.78%
K-562; K-562, 6.25 umol, read-out: Toxicity %
  cytotoxicity at 6.25 µmol: 91.2%
K-562; K-562, 12.5 umol
  viability at 12.5 µmol: 7.76%
K-562; K-562, 12.5 umol, read-out: Toxicity %
  cytotoxicity at 12.5 µmol: 92.2%
K-562; K-562, 25 umol
  viability at 25 µmol: 7.02%
K-562; K-562, 25 umol, read-out: Toxicity %
  cytotoxicity at 25 µmol: 93%
K-562; MTT, K-562, read-out: Cytotoxicity against cancer cells IC50 K-562
  IC50: 385.8 ± 3.2 nM
BAX/Bcl-2; control 0.1260
  Gene expression (fold change) BAX/Bcl-2 ratio: 2.1544 ± 0.96
BAX/Bcl-2; control […]
  BAX/Bcl-2 ratio: 2.15
caspase-9
  Caspase-9 ± SE: 30.57 ± 3.39 ng/L
caspase-9; listed as N1
  Caspase-9 ± SE: 30.57 ng/L
caspase-9; HepG-2, vs control cells
  caspase-9 expression level, fold increase: 2.77 fold

## O=C(Nc1ccc(Oc2nc(Cl)nc3ccccc23)cc1)c1cccnc1 [VIII]
VEGFR-2 kinase; read-out: VEGFR-2 inhibition IC50
  IC50: 60 nM
MCF-7 [2]
  IC50 MCF-7: 33.40 µg/mL (≈ 88.6 µM)
PC3
  IC50 PC3: 40.90 µg/mL (≈ 109 µM)
HepG2
  IC50 HepG2: 24.10 µg/mL (≈ 64 µM)

## O=C(CSc1nc2ccc([N+](=O)[O-])cc2c(=O)n1-c1ccccc1)NNC(=O)c1ccccc1 [VII]
VEGFR-2 kinase; read-out: IC50 against VEGFR-2 kinase
  IC50: 4600 ± 60 nM
WI-38
  IC50: 146000 nM
MCF-7 [2]
  IC50 MCF-7: 30.85 µg/mL (≈ 64.9 µM)
PC3
  IC50 PC3: 26.10 µg/mL (≈ 54.9 µM)
HepG2
  IC50 HepG2: 17.23 µg/mL (≈ 36.2 µM)

— paper PMC12377202, “Design, synthesis, and cytotoxic evaluation of quinazoline-based derivatives as VEGER-2 inhibitors: comparative study against EGFR kinase activity, induction of apoptosis, and molecular docking study” (RSC Advances, 2025)
